Source: article PMC9578396, “Intrinsic Antibacterial Activity of Xeruborbactam In Vitro: Assessing Spectrum and Mode of Action” (Antimicrobial Agents and Chemotherapy, 2022)
Like-named read-outs stand apart in the source and are kept apart here.

Experiments:
Klebsiella pneumoniae = test: microbe, parasite or virus in culture; format: cell-based
Outline: (§1)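 Test organisms were KPC-producing clinical isolates (some enriched for porin mutations), matched isolates that lost KPC plasmids, and engineered porin/efflux mutant strains. Susceptibility was measured by broth microdilution following CLSI methods, using panels prepared in-house.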

Acinetobacter baumannii = test: Broth microdilution MIC (CLSI), Acinetobacter baumannii; format: cell-based; details: Acinetobacter baumannii, read-out: MIC
Outline: as §1

Pseudomonas aeruginosa = test: Broth microdilution MIC (CLSI), Pseudomonas aeruginosa; format: cell-based; details: Pseudomonas aeruginosa, strain PAM1154 (Fig. 6); read-out: MIC
Outline: as §1

[1] = system: K. pneumoniae strain KPM1026a; test: Fluorescence microscopy, cellular morphology; format: cell-based, Klebsiella pneumoniae; details: treated at 1× and 2× MIC, 1 to 2 h, 30°C
Method: (§2) Single colonies of K. pneumoniae strain KPM1026a, A. baumannii strain ATCC 17978, and P. aeruginosa strain PAM1154 were picked from LB agar plates, inoculated in cation-adjusted Mueller-Hinton broth (CA-MHB), and incubated overnight at 30°C with rolling. Overnight cultures were diluted into fresh CA-MHB and incubated at 30°C, with rolling, until they reached an OD600 of ≈0.12 to 0.15 (equivalent to ~2 × 10^8 CFU/mL). Samples were then treated with compounds and incubated at 30°C, with rolling. After 1 or 2 h of treatment, cells were collected and stained with a dye mix containing FM4-64 (1 μg/mL), DAPI (4′,6-diamidino-2-phenylindole) (2 μg/mL), and SYTOX green (0.5 μM) (Molecular Probes, Invitrogen, or Thermo Fisher Scientific). Cells were transferred onto an agarose pad containing 1.2% agarose and 20% LB medium for microscopy. Microscopy was performed as previously described ([34]).

[2] = system: A. baumannii strain ATCC 17978; test: Fluorescence microscopy, cellular morphology; format: cell-based, Acinetobacter baumannii; details: xeruborbactam, meropenem 1× and 2× MIC; aztreonam 2× MIC; amdinocillin 2 μg/mL
Method: as §2

## CC1(C)S[C@@H]2[C@H](/N=C/N3CCCCCC3)C(=O)N2[C@H]1C(=O)O [Mecillinam]
Klebsiella pneumoniae; KPM1026a (no beta-lactamase), xeruborbactam 0 µg/ml
  MIC: 0.25 µg/mL
Klebsiella pneumoniae; KPM1026a, xeruborbactam 2 µg/ml
  MIC: 0.25 µg/mL
Klebsiella pneumoniae; KPM1026a, xeruborbactam 4 µg/ml
  MIC: 0.125 µg/mL
Klebsiella pneumoniae; KPM1026a, xeruborbactam 8 µg/ml
  MIC: 0.06 µg/mL
Klebsiella pneumoniae; Klebsiella pneumoniae, KPM1026a, alone, read-out: MIC
  MIC: 0.25 µg/mL
Klebsiella pneumoniae; Klebsiella pneumoniae, KPM1026a, parent, read-out: MIC
  MIC: 0.25 µg/mL
Klebsiella pneumoniae; Klebsiella pneumoniae, KPM3532 (TolQ::M189K), alone
  MIC: > 64 µg/mL
Klebsiella pneumoniae; Klebsiella pneumoniae, KPM3532, TolQ::M189K
  MIC: > 64 µg/mL
Klebsiella pneumoniae; Klebsiella pneumoniae, KPM3534 (TolQ::S31F), alone
  MIC: > 64 µg/mL
Klebsiella pneumoniae; Klebsiella pneumoniae, KPM3534, TolQ::S31F
  MIC: > 64 µg/mL
Klebsiella pneumoniae; Klebsiella pneumoniae, KPM4235, TolQ::IP(183–1844)PR
  MIC: > 64 µg/mL
Klebsiella pneumoniae; Klebsiella pneumoniae, KPM4236, TolQ::TAA at aa 103
  MIC: > 64 µg/mL
Klebsiella pneumoniae; Klebsiella pneumoniae, KPM4238, TolQ::S25F
  MIC: > 64 µg/mL
Klebsiella pneumoniae; Klebsiella pneumoniae, KPM4239, TolQ::S28F
  MIC: > 64 µg/mL
Klebsiella pneumoniae; Klebsiella pneumoniae, KPM4240, TolQ::S25Y
  MIC: > 64 µg/mL
Klebsiella pneumoniae; Klebsiella pneumoniae, strain KPM1026a measured at 30°C (Fig. 6), read-out: MIC
  MIC: 128 µg/mL
Acinetobacter baumannii; ATCC17978, strain ATCC 17978 (Fig. 6)
  MIC: 128 µg/mL
Acinetobacter baumannii; ATCC17978, strain ATCC 17978
  MIC: > 256 µg/mL
Pseudomonas aeruginosa
  MIC: 128 µg/mL
[1]
  cellular morphology: cell rounding
[2]
  cellular morphology: bacterial cell rounding but not swelling
